PMC8991007, “Benzylic Dehydroxylation of Echinocandin Antifungal Drugs Restores Efficacy against Resistance Conferred by Mutated Glucan Synthase” (Journal of the American Chemical Society, 2022)
≈ marks a conversion by molar mass, not a printed value. Read-outs that look alike come from different tables or passages of the source. *1 amine or outer side, *2 acyl side, *3 side chain or, on linkers, in order; H or OH if unused. Where a SMILES comes first, the peptide text is derived from it. Bridges are numbered along the chain shown (N, C = ends). [ ]: non-standard residue; d: D form. The star is where a group is joined. Orn(4R-OH,5R-OCH2CH2NMe3+) = C[N+](C)(C)CCO[C@@H](N[*:3])[C@H](O)C[C@H](N[*:1])C(=O)[*:2]; pTerphenylCO(4''-OnC5H11) = CCCCCOc1ccc(-c2ccc(-c3ccc(C(=O)*)cc3)cc2)cc1; Orn(4R-OH,5R-OH) = O=C([C@H](C[C@@H](O)[C@@H](O)N[*:3])N[*:1])[*:2]; hTyr(3S-OH,4S-OH) = N[C@H](C(=O)O)[C@H](O)[C@@H](O)c1ccc(O)cc1; Pro(3S-OH,4S-Me) = C[C@H]1CN[C@H](C(=O)O)[C@H]1O; hTyr(3R-OH) = N[C@H](C(=O)O)[C@H](O)Cc1ccc(O)cc1; Hyp = O=C(O)[C@@H]1C[C@@H](O)CN1

Experiments:
C. albicans = test: Minimum inhibitory concentration broth double-dilution assay; assay type: cell-based, Candida albicans; conditions: for MIC: 24 h, 30 °C
Description: The antifungal activities of compounds 1 and 2 were evaluated against a panel of 50 strains of C. albicans and C. glabrata (Table S4), including echinocandin-resistant strains that were constructed by introducing mutations within and near the defined hotspots in the FKS1 and/or FKS2 genes.[27] To evaluate antifungal activity, we determined MIC values. The MIC was defined as the lowest drug concentration that led to turbidity (measured at 600 nm) of less than or equal to 35% of that of the untreated culture. As controls, we tested CSF, MCF, ANF, and RZF.
All of the tested compounds were dissolved in anhydrous DMSO to a concentration of 5 mg/mL. Candida strains were streaked from a glycerol stock onto YPAD agar plates and grown for 24 h at 30 °C. Colonies were suspended in 1 mL of PBS and diluted to an O.D. of 0.01 at 600 nm with YPAD broth and added into flat-bottom 96-well microplates (Corning) containing a gradient of twofold dilutions per tested compound with concentrations ranging from 64 to 0.0009 μg/mL. Control wells with no drug and blank wells without yeast cells containing YPAD only were also prepared. […] Each concentration was tested in triplicate, and results were confirmed by at least two independent sets of experiments.

HCT-116 = test: cells; assay type: cell-based; conditions: Homo sapiens; HCT-116 expressing GFP, 24 h, mean ± SD; read-out: IC50 (cell viability)
Description: (§1) In this analysis, we used HCT-116, a human colorectal carcinoma cell line; UACC-62, a human melanoma cell line; Hs 578T, a human mammary gland carcinoma cell line, and SF-295, a human glioblastoma cell line. […] The highest concentration of the echinocandins used for the cell viability tests was determined based on the reported maximal plasma concentrations (Cmax) of ANF and RZF measured in humans. A Cmax of approximately 7 μM was measured during a pharmacokinetic study of ANF in patients with candidemia or invasive candidiasis who were treated with a 200 mg loading dose on day 1, followed by a daily 100 mg maintenance dose.[64]
(§2) Human cell lines HCT-116, UACC-62, Hs 578T, and SF-295 were obtained from the Life Sciences Core Facilities of the Nancy & Stephen Grand Israel National Center for Personalized Medicine. Cell lines were grown in an RPMI medium (Gibco, cat. no. 21875-034) supplemented with 10% fetal calf serum (Biological Industries, cat. no. 04-007-1A), Pen/Strep (Biological Industries, cat. no. 03-031-1B), and glutamine (Biological Industries, cat. no. 03-020-1B). GFP was introduced into cells using TALENS according to a previously reported protocol.[73] GFP cells were selected by FACS and propagated.
(§3) Assay-ready plates were designed using in-house software (CHEMPION, INCPM software development team) and prepared in 384-well Greiner plates (cat. no. 781091) using an Echo 555 Acoustic Liquid Handler (Labcyte). The final DMSO concentration in all samples was 0.4%. Prior to the experiment, cells were trypsinized and counted using a Countess cytometer. Cells were then diluted to 40,000 cells/mL in a fresh medium. Cells (50 μL/well; 2000 cells/well) were then dispensed with a Thermo Combi dispenser into plates containing predispensed compounds. After 30 min at room temperature to ensure uniform adherence of cells, the plates were moved to an automated incubator (Liconic STX44) and incubated at 37 °C. An automated confocal microscope with a 4× S Fluor lens (Molecular Devices ImageExpress) was used to acquire images of GFP-expressing cells after 24 h of incubation. Images were then analyzed using MetaExpress with a custom protocol (Custom Module Editor), and data were annotated and normalized using Genedata Screener software. Final normalized data were then loaded into CDD Vault software for comparative data visualization.

SF-295 = test: cells; assay type: cell-based; conditions: Homo sapiens; SF-295 expressing GFP, 24 h, mean ± SD; read-out: IC50 (cell viability)
Description: as §1, §2, §3

UACC-62 = test: cells; assay type: cell-based; conditions: Homo sapiens; UACC-62 expressing GFP, 24 h, mean ± SD; read-out: IC50 (cell viability)
Description: as §1, §2, §3

Hs 578T = test: Phenotypic viability assay of GFP reporter cell line; assay type: cell-based; conditions: Homo sapiens; Hs 578T expressing GFP, 24 h, mean ± SD
Description: as §1, §2, §3

THLE-2 cells = test: cells; assay type: cell-based; conditions: Homo sapiens
Description: The effects of ANF and RZF and their dehydroxylated derivatives 1 and 2 on the viability of human cells were further evaluated in an assay with THLE-2 cells, which are a transformed human liver epithelial cell line. These cells express phenotypic characteristics of normal adult liver epithelial cells.
THLE-2 cells (ATCC, cat. no. CRL2706) were cultured in 384-well plates coated with BEBM (Lonza, cat. no CC3170) containing 100 μg/mL BSA, 1:100 fibronectin (Sigma, cat. no. F0895), and a 1:100 PureCol EZ Gel Solution (Sigma, cat. no. 5074) for 50–60 min at 37 °C. THLE-2 cells were plated at a density of 2.5 × 10^3 cells/well in the coated plates in a total volume of 20 μL. Culture media were BEGM supplemented with 5 ng/mL hEGF (Sigma, cat. no. E5036), 70 ng/mL phosphoethanolamine (Sigma, cat. no. P0503), and 10% fetal bovine serum. Plates were incubated overnight at 37 °C, 95% humidity, and 5% CO2. The culture medium was replaced with 50 μL of a fresh medium, and compounds were applied to the cells in triplicate. Plates were cultured for another 72 h, and ATP was quantified using a CellTiter-Glo kit (Promega #G7573) according to the manufacturer’s protocol. The luminescence signal was detected using a PHERAstar FS (BMG Labtech).

[1] = #2 C. albicans DPL1015 (DP-A15)
[2] = #3 C. albicans DPL1016 (DP-A15-10)
[3] = THLE-2, 72 h of incubation, ranges for ANF and 1 and for RZF and 2 stated jointly, read-out: IC50 value (THLE-2 viability)
[4] = THLE-2, 72 h, ATP luminescence, read-out: IC50 (cell viability)

Row | Structure (SMILES) | MIC (C. albicans; #1 C. albicans Sc5314) | MIC (C. albicans; [1]) | MIC (C. albicans; [2]) | MIC (C. albicans; #4 C. albicans T-2068 (DP-C42)) | MIC (C. albicans; #5 C. albicans T-2069 (DP-85)) | MIC (C. albicans; #6 C. albicans (DP-89)) | MIC (C. albicans; #7 C. albicans T-2076 (DP-194)) | MIC (C. albicans; #8 C. albicans T-2077 (DP-205)) | IC50 (HCT-116) | IC50 (SF-295) | IC50 (UACC-62) | IC50 (Hs 578T) | IC50 (THLE-2 cells; [3]) | IC50 (THLE-2 cells; [4]) | MIC difference between ANF and dehydroxy derivative 1 (ratio MIC (ANF)/MIC (1)) (C. albicans; C. albicans strain 4, Fks1 phenylalanine 641 to serine) | MIC differences between RZF and dehydroxy derivative 2 (ratio MIC (RZF)/MIC (2)) (C. albicans; C. albicans strains 5 and 6, Fks1 serine 645 to phenylalanine or tyrosine)
1 | CCCCCOc1ccc(-c2ccc(-c3ccc(C(=O)N[C@H]4C[C@@H](O)[C@@H](O)NC(=O)[C@@H]5[C@@H](O)[C@@H](C)CN5C(=O)[C@H]([C@@H](C)O)NC(=O)[C@H]([C@H](O)[C@@H](O)c5ccc(O)cc5)NC(=O)[C@@H]5C[C@@H](O)CN5C(=O)[C@H]([C@@H](C)O)NC4=O)cc3)cc2)cc1 [ANF, anidulafungin] ({pTerphenylCO(4''-OnC5H11)}-[Orn(4R-OH,5R-OH)]T[Hyp][hTyr(3S-OH,4S-OH)]T[Pro(3S-OH,4S-Me)]; lactam 1-C) | 0.004 µg/mL (≈ 0.00351 µM) | 0.063 µg/mL (≈ 0.0553 µM) | 4 µg/mL (≈ 3.51 µM) | 2 µg/mL (≈ 1.75 µM) | 2 µg/mL (≈ 1.75 µM) | 2 µg/mL (≈ 1.75 µM) | 0.5 µg/mL (≈ 0.438 µM) | 0.5 µg/mL (≈ 0.438 µM) | > 40 µM | 19.3 ± 1.97 µM | 34.5 ± 4.15 µM | > 40 µM | 36 to 41 µM | 40.6 ± 2.9 µM |  | 
2 | CCCCCOc1ccc(-c2ccc(-c3ccc(C(=O)N[C@H]4C[C@@H](O)[C@@H](O)NC(=O)[C@@H]5[C@@H](O)[C@@H](C)CN5C(=O)[C@H]([C@@H](C)O)NC(=O)[C@H]([C@H](O)Cc5ccc(O)cc5)NC(=O)[C@@H]5C[C@@H](O)CN5C(=O)[C@H]([C@@H](C)O)NC4=O)cc3)cc2)cc1 [Compound 1, dehydroxy-ANF] ({pTerphenylCO(4''-OnC5H11)}-[Orn(4R-OH,5R-OH)]T[Hyp][hTyr(3R-OH)]T[Pro(3S-OH,4S-Me)]; lactam 1-C) | 0.008 µg/mL (≈ 0.00712 µM) | 0.031 µg/mL (≈ 0.0276 µM) | 1 µg/mL (≈ 0.889 µM) | 0.25 µg/mL (≈ 0.222 µM) | 0.5 µg/mL (≈ 0.445 µM) | 1 µg/mL (≈ 0.889 µM) | 0.5 µg/mL (≈ 0.445 µM) | 0.125 µg/mL (≈ 0.111 µM) | > 40 µM | 17.5 ± 1.57 µM | > 40 µM | > 40 µM | 36 to 41 µM | 36.4 ± 2.75 µM | 8 fold | 
3 | CCCCCOc1ccc(-c2ccc(-c3ccc(C(=O)N[C@H]4C[C@@H](O)[C@@H](OCC[N+](C)(C)C)NC(=O)[C@@H]5[C@@H](O)[C@@H](C)CN5C(=O)[C@H]([C@@H](C)O)NC(=O)[C@H]([C@H](O)Cc5ccc(O)cc5)NC(=O)[C@@H]5C[C@@H](O)CN5C(=O)[C@H]([C@@H](C)O)NC4=O)cc3)cc2)cc1 [Compound 2, dehydroxy-RZF] ({pTerphenylCO(4''-OnC5H11)}-[Orn(4R-OH,5R-OCH2CH2NMe3+)]T[Hyp][hTyr(3R-OH)]T[Pro(3S-OH,4S-Me)]; lactam 1-C) | 0.015 µg/mL | 0.062 µg/mL | 2 µg/mL | 0.5 µg/mL | 0.5 µg/mL | 1 µg/mL | 1 µg/mL | 0.25 µg/mL | 34.1 ± 11.5 µM | 32.4 ± 6.7 µM | 29.2 ± 5.2 µM | > 40 µM | 36 to 77 µM | 55.9 ± 3 µM |  | at least 8 fold
4 | CCCCCOc1ccc(-c2ccc(-c3ccc(C(=O)N[C@H]4C[C@@H](O)[C@@H](OCC[N+](C)(C)C)NC(=O)[C@@H]5[C@@H](O)[C@@H](C)CN5C(=O)[C@H]([C@@H](C)O)NC(=O)[C@H]([C@H](O)[C@@H](O)c5ccc(O)cc5)NC(=O)[C@@H]5C[C@@H](O)CN5C(=O)[C@H]([C@@H](C)O)NC4=O)cc3)cc2)cc1 [RZF, rezafungin] ({pTerphenylCO(4''-OnC5H11)}-[Orn(4R-OH,5R-OCH2CH2NMe3+)]T[Hyp][hTyr(3S-OH,4S-OH)]T[Pro(3S-OH,4S-Me)]; lactam 1-C) | 0.015 µg/mL | 0.25 µg/mL | 4 µg/mL | 2 µg/mL | 8 µg/mL | 8 µg/mL | 1 µg/mL | 1 µg/mL | > 40 µM | > 40 µM | > 40 µM | > 40 µM | 36 to 77 µM | 76.6 ± 4.8 µM |  | 
